Assay results from patent US11001596B2, “7-phenylethylamino-4H-pyrimido[4,5-d][1,3]oxazin-2-one compounds as mutant IDH1 and IDH2 inhibitors” (Eli Lilly and Company, priority 2016, dated 2021).

Tests used:
[1] = biological target: Wild-type IDH2 (Homo sapiens (Human), UniProt P48735); test: Biochemical assay for wild-type IDH2 enzyme (isocitrate to αKG, LC-MS); conditions: pH 7.5
Description: (§1) IDH1 and IDH2 enzymes catalyze the conversion of isocitrate to αKG. […] Following derivatization at room temperature for one hour, samples are extracted with 600 μL of EtOAc.

[2] = biological target: IDH2-R172K (Homo sapiens (Human), UniProt P48735, R172K); test: Biochemical assay for IDH2 R172K mutant enzyme (conversion of αKG to 2HG, RapidFire MS); conditions: IDH2/R172K IC50, 1.2 nM enzyme, 90 minutes, pH 7.0
IDH2-R172K, sequence (P48735 40-452 R172K): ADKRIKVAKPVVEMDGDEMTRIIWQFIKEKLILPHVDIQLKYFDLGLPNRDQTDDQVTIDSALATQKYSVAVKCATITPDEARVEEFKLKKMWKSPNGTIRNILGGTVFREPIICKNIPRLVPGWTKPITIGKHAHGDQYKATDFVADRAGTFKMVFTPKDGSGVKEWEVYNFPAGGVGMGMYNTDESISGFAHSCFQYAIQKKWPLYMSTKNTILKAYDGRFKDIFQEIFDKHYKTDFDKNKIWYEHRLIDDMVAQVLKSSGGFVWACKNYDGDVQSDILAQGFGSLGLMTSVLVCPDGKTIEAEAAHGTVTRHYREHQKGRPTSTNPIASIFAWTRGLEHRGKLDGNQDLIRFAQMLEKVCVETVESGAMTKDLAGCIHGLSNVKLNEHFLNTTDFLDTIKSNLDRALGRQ

[3] = biological target: IDH2-R140Q (Homo sapiens (Human), UniProt P48735, R140Q); test: Biochemical assay for IDH2 R140Q mutant enzyme (conversion of αKG to 2HG, RapidFire MS); conditions: IDH2/R140Q IC50, 1.2 nM enzyme, 90 minutes, pH 7.0
IDH2-R140Q, sequence (P48735 40-452 R140Q): as the sequence (P48735 40-452 R172K) above, with R101Q, K133R counted along it

[4] = biological target: Wild-type IDH1 (Homo sapiens (Human), UniProt O75874); test: Biochemical assay for wild-type IDH1 enzyme (isocitrate to αKG, LC-MS); conditions: pH 7.5
Wild-type IDH1, sequence (O75874 whole entry): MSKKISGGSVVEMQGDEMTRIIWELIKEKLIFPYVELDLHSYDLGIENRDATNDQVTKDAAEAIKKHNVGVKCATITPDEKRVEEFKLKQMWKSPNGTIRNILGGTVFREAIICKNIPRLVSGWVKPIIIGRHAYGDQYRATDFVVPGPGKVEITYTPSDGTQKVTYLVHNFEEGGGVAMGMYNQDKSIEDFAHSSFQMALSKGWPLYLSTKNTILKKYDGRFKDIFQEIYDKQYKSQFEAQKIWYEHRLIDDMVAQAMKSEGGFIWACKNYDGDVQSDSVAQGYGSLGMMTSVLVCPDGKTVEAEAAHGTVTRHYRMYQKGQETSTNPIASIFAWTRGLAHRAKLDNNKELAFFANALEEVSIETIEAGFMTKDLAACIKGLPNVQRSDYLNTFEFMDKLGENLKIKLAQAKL
Description: as §1

Wild-type IDH2, sequence (P48735 40-452): as the sequence (P48735 40-452 R172K) above, with K133R counted along it

SMILES	IC50 [1]	IC50 [2]	IC50 [3]	IC50 [4]
C=CC(=O)N1CCN(C(CC2CC2)c2ccc([C@H](C)Nc3ncc4c(n3)N(C)C(=O)OC4)cc2)CC1 (single isomer, unassigned) [Example 4]	3700 nM	28 nM	81.1 nM	302 nM
C=CC(=O)N1CCN(C(CCOC)c2ccc([C@H](C)Nc3ncc4c(n3)N(CC)C(=O)OC4)cc2)CC1 (single isomer, unassigned) [Example 13]	7030 nM	39 nM	239 nM	456 nM
C=CC(=O)N1CCN(C(CCOC)c2ccc([C@H](C)Nc3ncc4c(n3)N(CC)C(=O)OC4)cc2)CC1 (single isomer, unassigned) [Example 14]	7400 nM	162 nM	746 nM	392 nM
C=CC(=O)N1CCN([C@H](CC2CC2)c2ccc([C@H](C)Nc3ncc4c(n3)N(CC)C(=O)OC4)cc2)CC1 [Example 1, 7-[[(1S)-1-[4-[(1R)-2-Cyclopropyl-1-(4-prop-2-enoylpiperazin-1-yl)ethyl]phenyl]ethyl]amino]-1-ethyl-4H-pyrimido[4,5-d][1,3]oxazin-2-one]	801 ± 745 nM	32.8 nM	113 nM	85.4 ± 107 nM
C=CC(=O)N1CCN([C@@H](CC2CC2)c2ccc([C@H](C)Nc3ncc4c(n3)N(CC)C(=O)OC4)cc2)CC1 [Example 2, 7-[[(1S)-1-[4-[(1S)-2-cyclopropyl-1-(4-prop-2-enoylpiperazin-1-yl)ethyl]phenyl]ethyl]amino]-1-ethyl-4H-pyrimido[4,5-d][1,3]oxazin-2-one]	884 ± 748 nM	11.5 nM	36.9 nM	105 ± 113 nM

Continued, values first:

IC50 [1]	IC50 [2]	IC50 [3]	IC50 [4]	SMILES
3370 nM	15.6 nM	64.8 nM	425 nM	C=CC(=O)N1CCN(C(CC2CC2)c2ccc([C@H](C)Nc3ncc4c(n3)N(C)C(=O)OC4)cc2)CC1 (single isomer, unassigned) [Example 3]
1530 nM	22.4 nM	74.3 nM	233 nM	C=CC(=O)N1CCN(C(CC(C)C)c2ccc([C@H](C)Nc3ncc4c(n3)N(CC)C(=O)OC4)cc2)CC1 (single isomer, unassigned) [Example 7]
1620 nM	17 nM	46 nM	237 nM	C=CC(=O)N1CCN(C(CC(C)C)c2ccc([C@H](C)Nc3ncc4c(n3)N(CC)C(=O)OC4)cc2)CC1 (single isomer, unassigned) [Example 8]
2080 nM	20 nM	54.3 nM	345 nM	C=CC(=O)N1CCN(C(CC)c2ccc([C@H](C)Nc3ncc4c(n3)N(CC)C(=O)OC4)cc2)CC1 (single isomer, unassigned) [Example 11]
3220 nM	26.3 nM	134 nM	277 nM	C=CC(=O)N1CCN(C(CC)c2ccc([C@H](C)Nc3ncc4c(n3)N(CC)C(=O)OC4)cc2)CC1 (single isomer, unassigned) [Example 12]
493 nM	–	–	54.9 nM	C=CC(=O)N1CCN(C(CC(C)C)c2ccc([C@H](C)Nc3ncc4c(n3)N(CC)C(=O)OC4)cc2)CC1 (stereo partly drawn) [Example 6, 1-Ethyl-7-[[(1S)-1-[4-[3-methyl-1-(4-prop-2-enoylpiperazin-1-yl)butyl]phenyl]ethyl]amino]-4H-pyrimido[4,5-d][1,3]oxazin-2-one]
